Values joined by “and” are separate entries in the source; they are usually repeats but may differ in a detail not shown here. Equal values may be shown once. Read-outs that look alike come from different tables or passages of the source.
Assays:
[1] = Partition of components between water+sulfolane phase and methylnaphthalene phase after dehydration reaction; format: physicochemical; conditions: room temperature; for [Conc]water+S: concentration in aqueous (water+sulfolane) phase; for [conc]MN: concentration in methylnaphthalene phase; for wt. %water+S: content in aqueous (water+sulfolane) phase; for wt. %MN: content in methylnaphthalene phase; for Pmol: ratio of absolute amounts polar/apolar phase, polar phase volume twice the apolar
[2] = cited from earlier work
[3] = octanol-water; water-soluble solvents, Table 3; cited from earlier work
[4] = water-insoluble solvents, Table 2
[5] = water-insoluble boronic acids, Table 1

**Q.** With `Cc1cccc2ccccc12` [1-methylnaphtalene] as the compound, how does the “[Conc]water+S” value [1] read?
**A.** 3 mM

**Q.** And the “[conc]MN” value [1]?
**A.** 7,000 mM

**Q.** What about the “wt. %water+S” value ([1]; listed as 1-MN) of the same compound?
**A.** 0.04 wt. %

**Q.** What about the “wt. %water+S” value ([1]; listed as MN) of the same compound?
**A.** < 0.1 wt. %

**Q.** And the “wt. %MN” value [1]?
**A.** 91 wt. %

**Q.** What about the Pmol [1] of the same compound?
**A.** 0.0009

**Q.** And the “Water solubility g/L (20° C.)” value [2, 4]?
**A.** 0.026 g/L

**Q.** With `CCCCc1ccc(B(O)O)cc1` [4-butylphenyl boronic acid] as the compound, how does the “Water solubility g/L (20° C.)” value [2, 5] read?
**A.** Insoluble

**Q.** Which “Water solubility g/L (20° C.)” value [2, 5] does the source give for `CC(C)(C)c1ccc(B(O)O)cc1` [4-tert-Butylphenyl boronic acid] here?
**A.** Insoluble

**Q.** With `CCc1ccc(O)cc1` [4Et-phenol] as the compound, how does the “Water solubility g/L (20° C.)” value [2, 4] read?
**A.** 6.1 g/L

**Q.** For `c1ccc2occc2c1` [Benzofuran], which “Water solubility g/L (20° C.)” value [2, 4] is on record?
**A.** insoluble

**Q.** With `COCCOCCOC` [Diglyme] as the compound, how does the LogP [3] read?
**A.** −0.8

**Q.** For `O=Cc1ccco1` [Furfural], which “[Conc]water+S” value [1] is on record?
**A.** 103 mM

**Q.** What about the “[conc]MN” value [1] of the same compound?
**A.** 144 mM

**Q.** What about the “wt. %water+S” value [1] of the same compound?
**A.** 0.88 wt. %

**Q.** What about the “wt. %water+S” value ([1]; listed as furfural) of the same compound?
**A.** < 1 wt. %

**Q.** What about the “wt. %MN” value [1] of the same compound?
**A.** 1.3 wt. %

**Q.** What about the Pmol [1] of the same compound?
**A.** 1.43

**Q.** What about the “share of overall furfural produced contained in non-aqueous MN-rich phase” value [1] of the same compound?
**A.** 41%

**Q.** With `O=C1CCCO1` [gamma butyrolactone] as the compound, how does the LogP [3] read?
**A.** −0.76

**Q.** Which LogP [3] does the source give for `CC1CCC(=O)O1` (centres unmarked) [gamma valerolactone] here?
**A.** −0.27

**Q.** Which LogP [3] does the source give for `CN1CCCC1=O` [nMe-pyrrolidone] here?
**A.** −0.4

**Q.** Which “Water solubility g/L (20° C.)” value [2, 5] does the source give for `Cc1ccccc1B(O)O` [o-tolylboronic acid] here?
**A.** Slightly

**Q.** For `CCCCCCCCB(O)O` [octylboronic acid], which “Water solubility g/L (20° C.)” value [2, 5] is on record?
**A.** Insoluble

**Q.** What about the “water solubility (in words)” value [2] of the same compound?
**A.** water-insoluble

**Q.** What does the source list for `OB(O)c1ccccc1` [phenylboronic acid]?
**A.** [Conc]water+S [1]: 125 mM; [conc]MN [1]: 340 mM; wt. %water+S ([1]; listed as PBA): < 1.3 wt. % and 1.3 wt. %; wt. %MN [1]: 3.7 wt. %; Pmol [1]: 0.74

**Q.** Which results are given for `O=S1(=O)CCCC1` [sulfolane]?
**A.** [Conc]water+S [1]: 5,100 mM; [conc]MN [1]: 370 mM; wt. %water+S [1]: 54 wt. %; wt. %MN [1]: 4 wt. %; wt. %MN ([1]; listed as Sulfolane): 4.0 wt. %; Pmol [1]: 13.8

**Q.** With `O` [water] as the compound, how does the “[Conc]water+S” value [1] read?
**A.** 27,600 mM

**Q.** And the “[conc]MN” value [1]?
**A.** 92 mM

**Q.** And the “wt. %water+S” value [1]?
**A.** 44 wt. %

**Q.** What about the “wt. %MN” value [1] of the same compound?
**A.** 0.15 wt. %

**Q.** What about the Pmol [1] of the same compound?
**A.** 601
